Patent US10647747B2, “Cyclosporin derivatives and uses thereof” (S&T Global Inc., priority 2010, dated 2020)
Read-outs that look alike come from different tables or passages of the source. *1 amine or outer side, *2 acyl side, *3 side chain or, on linkers, in order; H or OH if unused. Where a SMILES comes first, the peptide text is derived from it. [ ]: non-standard residue; d: D form. X3 = CC=CCC(C)C(O)C(C(=O)[*:2])N(C)[*:1]; X9 = C=CCOC(C)(C)CC(C(=O)[*:2])N(C)[*:1]; X7 = CN(C(SCCCN1CCOCC1)C(=O)[*:2])[*:1]; NMeL = CN[CH](CC(C)C)C(=O)O; NMeV = CN[CH](C(=O)O)C(C)C; Abu = CC[CH](N)C(=O)O

What was measured:
[1] = Stability testing: epimerization of cyclosporin derivatives in methanol, monitored by HPLC; type: physicochemical; conditions: Table 11, MeOH at 50° C.-58° C., 168 hours
[2] = test system: HCV replicon in cell line ET (luc-ubi-neo/ET), Huh7 human hepatoma; test: HCV subgenomic replicon assay, luciferase end point; type: cell-based; conditions: read-out: Antiviral activity EC50
[3] = HCV subgenomic replicon, cell line ET (luc-ubi-neo/ET) Huh7, luciferase end point
[4] = Table 16, HCV replicon luciferase
[5] = Table 13, HCV replicon luciferase

## C/C=C/C[C@@H](C)[C@@H](O)[C@H]1C(=O)N[C@@H](CC)C(=O)N(C)[C@H](CSCCN(CC)CC)C(=O)N(C)[C@@H](CC(C)(C)O)C(=O)N[C@@H](C(C)C)C(=O)N(C)[C@@H](CC(C)C)C(=O)N[C@@H](C)C(=O)N[C@H](C)C(=O)N(C)[C@@H](CC(C)C)C(=O)N(C)[C@@H](CC(C)C)C(=O)N(C)[C@@H](C(C)C)C(=O)N1C
[1]
  Epimerization % after 168 hours: 0%

## CC=CCC(C)C(O)C1C(=O)NC(CC)C(=O)N(C)C(CSCCCN2CCCCC2)C(=O)N(C)C(CC(C)(C)O)C(=O)NC(C(C)C)C(=O)N(C)C(CC(C)C)C(=O)NC(C)C(=O)NC(C)C(=O)N(C)C(CC(C)C)C(=O)N(C)C(CC(C)C)C(=O)N(C)C(C(C)C)C(=O)N1C (stereo not shown)
[2]; [3]
  EC50: 50 nM

## C/C=C/C[C@@H](C)[C@@H](O)[C@H]1C(=O)N[C@@H](CC)C(=O)N(C)[C@H](CSCCCN2CCOCC2)C(=O)N(C)[C@@H](CC(C)(C)O)C(=O)N[C@@H](C(C)C)C(=O)N(C)[C@@H](CC(C)C)C(=O)N[C@@H](C)C(=O)N[C@H](C)C(=O)N(C)[C@@H](CC(C)C)C(=O)N(C)[C@@H](CC(C)C)C(=O)N(C)[C@@H](C(C)C)C(=O)N1C
[2]; [3]
  EC50: 50 nM
[2]; [4]
  EC50: 40 nM

## C/C=C/C[C@@H](C)[C@@H](O)[C@H]1C(=O)N[C@@H](CC)C(=O)N(C)[C@H](CSCCN2CCCCC2)C(=O)N(C)[C@@H](CC(C)(C)O)C(=O)N[C@@H](C(C)C)C(=O)N(C)[C@@H](CC(C)C)C(=O)N[C@@H](C)C(=O)N[C@H](C)C(=O)N(C)[C@@H](CC(C)C)C(=O)N(C)[C@@H](CC(C)C)C(=O)N(C)[C@@H](C(C)C)C(=O)N1C
[2]; Hepatitis C virus, Huh-7, Table 14, HCV replicon luciferase
  EC50: 40 nM

## CC=CCC(C)C(O)C1C(=O)NC(CC)C(=O)N(C)C(CSCCCN2CCN(CC)CC2)C(=O)N(C)C(CC(C)(C)O)C(=O)NC(C(C)C)C(=O)N(C)C(CC(C)C)C(=O)NC(C)C(=O)NC(C)C(=O)N(C)C(CC(C)C)C(=O)N(C)C(CC(C)C)C(=O)N(C)C(C(C)C)C(=O)N1C (stereo not shown)
[2]; [4]
  EC50: 50 nM

## C/C=C/C[C@@H](C)[C@@H](O)[C@H]1C(=O)N[C@@H](CC)C(=O)N(C)[C@H](COCCCN2CCOCC2)C(=O)N(C)[C@@H](CC(C)(C)O)C(=O)N[C@@H](C(C)C)C(=O)N(C)[C@@H](CC(C)C)C(=O)N[C@@H](C)C(=O)N[C@H](C)C(=O)N(C)[C@@H](CC(C)C)C(=O)N(C)[C@@H](CC(C)C)C(=O)N(C)[C@@H](C(C)C)C(=O)N1C [[(R)-(3-(N-Morpholino)propoxy)methyl-Sar]-3-[(γ-hydroxy)-NMeLeu]-4-cyclosporin]
[2]; Table 14, HCV replicon luciferase
  EC50: 40 nM

## C=CCOC(C)(C)CC1C(=O)NC(C(C)C)C(=O)N(C)C(CC(C)C)C(=O)NC(C)C(=O)NC(C)C(=O)N(C)C(CC(C)C)C(=O)N(C)C(CC(C)C)C(=O)N(C)C(C(C)C)C(=O)N(C)C(C(O)C(C)CC=CC)C(=O)NC(CC)C(=O)N(C)C(SCCCN2CCOCC2)C(=O)N1C [[(S)-3-(N-Morpholino)propylthio-Sar]-3-[(γ-allyloxy)-N-MeLeu]-4-cyclosporin] (cyclo([X3][Abu][X7][X9]V[NMeL]AA[NMeL][NMeL][NMeV]); configuration not given here)
[2]; [5]
  EC50: 150 nM

## CC=CCC(C)C(O)C1C(=O)NC(CC)C(=O)N(C)C(SCCCN2CCOCC2)C(=O)N(C)C(CC(C)(C)OC)C(=O)NC(C(C)C)C(=O)N(C)C(CC(C)C)C(=O)NC(C)C(=O)NC(C)C(=O)N(C)C(CC(C)C)C(=O)N(C)C(CC(C)C)C(=O)N(C)C(C(C)C)C(=O)N1C [[(S)-3-(N-Morpholino)propylthio-Sar]-3-[(γ-methoxy)-N-MeLeu]-4-cyclosporin]
[2]; [5]
  EC50: 60 nM

## C/C=C/C[C@@H](C)[C@@H](O)[C@H]1C(=O)N[C@@H](CC)C(=O)N(C)CC(=O)N(C)[C@@H](CC(C)(C)OCSC)C(=O)N[C@@H](C(C)C)C(=O)N(C)[C@@H](CC(C)C)C(=O)N[C@@H](C)C(=O)N[C@H](C)C(=O)N(C)[C@@H](CC(C)C)C(=O)N(C)[C@@H](CC(C)C)C(=O)N(C)[C@@H](C(C)C)C(=O)N1C [[(γ-Methylthio)methoxy-N-MeLeu]-4-cyclospori]
[2]; [5]
  EC50: 400 nM
